# Square brackets hold non-standard residues; d marks the D form. Peptide text beside a SMILES is read from it. MeBmt = C/C=C/C[C@@H](C)[C@@H](O)[C@H](NC)C(=O)O; NMeL = CN[C@@H](CC(C)C)C(=O)O; NMeV = CN[C@H](C(=O)O)C(C)C; Sar = CNCC(=O)O
# Legend:
# [1] = test system: Hepatitis C virus; assay: Ratio of EC50 for FR901459 to EC50 for test compound for antiviral activity against HCV subgenomic replicon assessed as inhibition of replication by qRT-PCR analysis; type: functional, Hepacivirus hominis
# [2] = test system: Hepatitis C virus; assay: Antiviral activity against HCV subgenomic replicon assessed as inhibition of replication by qRT-PCR analysis; type: functional, organism-based, Hepacivirus hominis
Compound,Ratio EC50 [1],EC50 [2]
C/C=C/C[C@@H](C)[C@@H](O)[C@H]1C(=O)N[C@@H]([C@@H](C)O)C(=O)N(C)[C@H](C)C(=O)N(C)[C@@H](CC(C)C)C(=O)N[C@@H](CC(C)C)C(=O)N(C)[C@@H](CC(C)C)C(=O)N[C@@H](C)C(=O)N[C@H](C)C(=O)N(C)[C@@H](CC(C)C)C(=O)N[C@@H](CC(C)C)C(=O)N(C)[C@@H](C(C)C)C(=O)N1C,2.5,0.038 µg/mL
C/C=C/C[C@@H](C)[C@@H](O)[C@H]1C(=O)N[C@@H]([C@@H](C)O)C(=O)N(C)CC(=O)N(C)[C@@H](CC(C)C)C(=O)N[C@@H](CC(C)C)C(=O)N(C)[C@@H](CC(C)C)C(=O)N[C@@H](C)C(=O)N[C@H](C)C(=O)N(C)[C@@H](CC(C)C)C(=O)N[C@@H](CC(C)C)C(=O)N(C)[C@@H](C(C)C)C(=O)N1C (cyclo(A[dA][NMeL]L[NMeV][MeBmt]T[Sar][NMeL]L[NMeL])),–,0.096 µg/mL
